From paper PMC12586182 (Frontiers in Oncology, 2025) come the findings set out here.

Experiment in all cases: Kinase panel profiling at 1 µmol/L (mobility shift assay, Carna)
Format in all cases: biochemical
Details in all cases: 1 µmol/L of BTK inhibitor

One experiment addresses T1, BRSK2 (Homo sapiens, UniProt Q8IWQ3).
T1 construct: purchased Carna Biosciences
T1 sequence (Q8IWQ3 1-736): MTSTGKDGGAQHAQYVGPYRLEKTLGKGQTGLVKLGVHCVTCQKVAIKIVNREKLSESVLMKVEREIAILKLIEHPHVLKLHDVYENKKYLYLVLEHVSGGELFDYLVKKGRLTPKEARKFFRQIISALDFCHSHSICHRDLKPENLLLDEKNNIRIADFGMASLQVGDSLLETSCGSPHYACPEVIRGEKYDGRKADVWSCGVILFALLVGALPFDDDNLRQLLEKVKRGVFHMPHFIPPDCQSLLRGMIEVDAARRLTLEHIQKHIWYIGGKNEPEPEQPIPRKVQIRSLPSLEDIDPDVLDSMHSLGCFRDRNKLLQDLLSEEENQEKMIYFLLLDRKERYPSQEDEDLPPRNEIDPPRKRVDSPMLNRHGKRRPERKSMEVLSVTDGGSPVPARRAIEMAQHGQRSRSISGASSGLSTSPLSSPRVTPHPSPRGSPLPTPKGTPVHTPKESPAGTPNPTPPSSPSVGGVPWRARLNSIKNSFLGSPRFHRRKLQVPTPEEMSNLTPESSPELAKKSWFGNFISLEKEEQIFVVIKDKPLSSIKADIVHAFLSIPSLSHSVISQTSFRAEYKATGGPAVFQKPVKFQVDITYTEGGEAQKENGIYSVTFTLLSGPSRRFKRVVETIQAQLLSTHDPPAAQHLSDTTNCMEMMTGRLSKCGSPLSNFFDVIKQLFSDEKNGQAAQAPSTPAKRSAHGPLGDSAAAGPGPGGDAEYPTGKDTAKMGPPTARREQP

For the next experiment, the target named is T2, MARK3 (Homo sapiens, UniProt P27448).
T2 construct: purchased Carna Biosciences

A further experiment has as its target T3, MST1 (Homo sapiens, UniProt Q13043).
T3 construct: purchased Carna Biosciences
T3 sequence (Q13043 1-487): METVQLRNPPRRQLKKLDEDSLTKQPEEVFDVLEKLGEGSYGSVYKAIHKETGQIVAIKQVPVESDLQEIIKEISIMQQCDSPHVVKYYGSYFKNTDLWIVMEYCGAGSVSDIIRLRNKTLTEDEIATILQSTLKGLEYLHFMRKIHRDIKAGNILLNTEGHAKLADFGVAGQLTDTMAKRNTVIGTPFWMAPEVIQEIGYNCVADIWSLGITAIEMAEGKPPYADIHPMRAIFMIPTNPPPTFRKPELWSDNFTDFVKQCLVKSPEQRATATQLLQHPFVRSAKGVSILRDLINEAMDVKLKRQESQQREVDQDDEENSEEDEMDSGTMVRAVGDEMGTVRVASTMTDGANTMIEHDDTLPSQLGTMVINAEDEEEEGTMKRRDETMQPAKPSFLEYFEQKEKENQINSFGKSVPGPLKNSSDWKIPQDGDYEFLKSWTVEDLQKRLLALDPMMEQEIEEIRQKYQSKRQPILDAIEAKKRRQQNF

The target in the next experiment is T4, QIK (Homo sapiens, UniProt Q9H0K1).
T4 construct: purchased Carna Biosciences

The target in the next experiment is T5, FLT3 (Homo sapiens, UniProt P36888).
T5 construct: purchased Carna Biosciences
T5 sequence (P36888 27-993): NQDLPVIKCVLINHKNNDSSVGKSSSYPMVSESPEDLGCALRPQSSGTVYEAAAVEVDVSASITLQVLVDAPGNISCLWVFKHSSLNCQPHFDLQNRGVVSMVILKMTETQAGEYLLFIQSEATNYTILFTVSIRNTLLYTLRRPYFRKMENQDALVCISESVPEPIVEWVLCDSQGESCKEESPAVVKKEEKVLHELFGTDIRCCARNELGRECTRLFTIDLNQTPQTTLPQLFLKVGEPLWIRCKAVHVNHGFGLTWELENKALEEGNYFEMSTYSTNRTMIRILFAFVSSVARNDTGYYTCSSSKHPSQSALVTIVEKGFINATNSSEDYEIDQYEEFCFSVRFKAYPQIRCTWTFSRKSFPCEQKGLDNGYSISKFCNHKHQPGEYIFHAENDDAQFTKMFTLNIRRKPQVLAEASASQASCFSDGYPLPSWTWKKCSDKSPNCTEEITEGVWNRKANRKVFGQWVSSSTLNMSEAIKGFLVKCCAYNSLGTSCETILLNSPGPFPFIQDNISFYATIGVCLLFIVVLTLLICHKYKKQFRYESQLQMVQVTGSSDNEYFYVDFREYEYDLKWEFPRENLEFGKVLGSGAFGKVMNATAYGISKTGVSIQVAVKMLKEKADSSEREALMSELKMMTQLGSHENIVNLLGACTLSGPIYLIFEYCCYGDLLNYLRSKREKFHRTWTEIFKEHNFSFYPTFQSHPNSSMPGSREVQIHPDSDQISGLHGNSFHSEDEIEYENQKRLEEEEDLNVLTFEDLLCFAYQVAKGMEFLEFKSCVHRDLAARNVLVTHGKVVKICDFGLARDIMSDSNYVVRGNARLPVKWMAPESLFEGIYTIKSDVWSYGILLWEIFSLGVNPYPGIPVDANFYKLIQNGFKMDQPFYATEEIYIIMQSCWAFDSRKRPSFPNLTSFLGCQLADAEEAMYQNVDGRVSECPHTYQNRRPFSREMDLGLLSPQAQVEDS

In a further experiment the target is T6, NuaK2 (Homo sapiens, UniProt Q9H093).
T6 construct: purchased Carna Biosciences
T6 sequence (Q9H093 1-628): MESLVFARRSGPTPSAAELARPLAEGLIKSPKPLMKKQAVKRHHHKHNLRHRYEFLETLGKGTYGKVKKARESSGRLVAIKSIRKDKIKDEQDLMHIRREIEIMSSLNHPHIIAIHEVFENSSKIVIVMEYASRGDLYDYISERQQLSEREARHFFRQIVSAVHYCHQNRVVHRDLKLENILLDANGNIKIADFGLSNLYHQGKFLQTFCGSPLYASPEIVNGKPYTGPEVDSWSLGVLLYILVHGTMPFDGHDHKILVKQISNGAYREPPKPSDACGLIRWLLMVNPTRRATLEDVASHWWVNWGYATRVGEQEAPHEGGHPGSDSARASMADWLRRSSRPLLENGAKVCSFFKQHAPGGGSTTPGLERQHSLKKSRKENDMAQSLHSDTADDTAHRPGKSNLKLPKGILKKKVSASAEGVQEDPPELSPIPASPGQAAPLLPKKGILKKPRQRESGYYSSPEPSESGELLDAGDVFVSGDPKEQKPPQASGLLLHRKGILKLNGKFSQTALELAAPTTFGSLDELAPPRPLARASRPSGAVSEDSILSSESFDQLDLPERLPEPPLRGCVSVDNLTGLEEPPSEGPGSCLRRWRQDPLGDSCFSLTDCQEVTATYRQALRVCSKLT

The structures appear in SMILES notation.

T4 sequence (Q9H0K1 whole entry): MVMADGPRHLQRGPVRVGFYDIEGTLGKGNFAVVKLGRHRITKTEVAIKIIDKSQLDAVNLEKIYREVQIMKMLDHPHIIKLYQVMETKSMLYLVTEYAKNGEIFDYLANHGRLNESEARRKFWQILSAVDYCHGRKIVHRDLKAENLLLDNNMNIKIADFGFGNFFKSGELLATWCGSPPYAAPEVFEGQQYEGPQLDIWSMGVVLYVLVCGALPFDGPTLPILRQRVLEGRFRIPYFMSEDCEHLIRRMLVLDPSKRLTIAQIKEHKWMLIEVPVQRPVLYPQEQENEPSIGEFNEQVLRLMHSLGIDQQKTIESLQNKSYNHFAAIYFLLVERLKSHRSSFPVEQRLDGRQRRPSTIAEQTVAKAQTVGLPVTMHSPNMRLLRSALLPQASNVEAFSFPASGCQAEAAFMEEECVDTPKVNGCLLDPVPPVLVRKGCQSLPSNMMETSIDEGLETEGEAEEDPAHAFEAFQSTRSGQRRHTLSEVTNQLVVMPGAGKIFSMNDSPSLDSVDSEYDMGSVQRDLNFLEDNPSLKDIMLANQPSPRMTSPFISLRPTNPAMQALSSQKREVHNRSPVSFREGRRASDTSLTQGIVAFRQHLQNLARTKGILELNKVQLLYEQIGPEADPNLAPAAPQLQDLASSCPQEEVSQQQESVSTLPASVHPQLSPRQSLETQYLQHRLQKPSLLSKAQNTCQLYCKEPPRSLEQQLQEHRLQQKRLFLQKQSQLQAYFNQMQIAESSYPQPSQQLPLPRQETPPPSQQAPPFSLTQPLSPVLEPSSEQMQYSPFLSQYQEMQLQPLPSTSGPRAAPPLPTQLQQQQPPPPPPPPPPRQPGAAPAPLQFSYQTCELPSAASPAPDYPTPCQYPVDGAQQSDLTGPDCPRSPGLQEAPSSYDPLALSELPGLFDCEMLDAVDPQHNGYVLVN
T2 sequence (P27448 whole entry): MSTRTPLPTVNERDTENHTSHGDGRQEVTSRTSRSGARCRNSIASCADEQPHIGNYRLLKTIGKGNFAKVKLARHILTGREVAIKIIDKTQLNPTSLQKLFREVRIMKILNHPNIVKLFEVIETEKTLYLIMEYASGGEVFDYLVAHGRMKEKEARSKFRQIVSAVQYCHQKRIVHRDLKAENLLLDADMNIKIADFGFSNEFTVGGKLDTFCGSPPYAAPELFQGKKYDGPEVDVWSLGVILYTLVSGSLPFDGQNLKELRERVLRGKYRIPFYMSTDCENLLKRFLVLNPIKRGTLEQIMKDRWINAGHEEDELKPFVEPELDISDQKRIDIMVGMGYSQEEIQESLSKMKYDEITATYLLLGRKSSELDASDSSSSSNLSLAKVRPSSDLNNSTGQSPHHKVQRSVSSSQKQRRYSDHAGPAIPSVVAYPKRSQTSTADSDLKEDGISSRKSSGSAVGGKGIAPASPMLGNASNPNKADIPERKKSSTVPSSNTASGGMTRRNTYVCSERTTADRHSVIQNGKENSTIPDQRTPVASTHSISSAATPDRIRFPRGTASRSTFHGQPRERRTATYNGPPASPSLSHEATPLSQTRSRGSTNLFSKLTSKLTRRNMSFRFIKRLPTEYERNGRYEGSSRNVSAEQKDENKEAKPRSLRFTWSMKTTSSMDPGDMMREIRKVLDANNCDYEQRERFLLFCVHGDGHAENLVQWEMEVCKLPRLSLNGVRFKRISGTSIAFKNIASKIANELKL

On to `CC#CC(=O)N1CCC[C@H]1c1nc(-c2ccc(C(=O)Nc3ccccn3)cc2)c2c(N)nccn12` [acalabrutinib], for which the “Percentage inhibition of kinase enzyme activity” value (from here on “Percentage inhibition”) is given as -10.15% on BRSK2; -2.57% on MARK3; 3.91% at MST1; -0.22% on QIK; 3.27% on FLT3; 3.11% on NuaK2.
`C=CC(=O)N1CCC[C@@H](n2nc(-c3ccc(Oc4ccccc4)cc3)c3c(N)ncnc32)C1` [ibrutinib]: the “Percentage inhibition” value on BRSK2 is reported as 15.84%; on MARK3 it was -5.88%; on MST1 it was 4.14%; at QIK, 4.70%; on FLT3, 62.77%; on NuaK2 it was 6.37%.
Take `O=C(c1ccc(Oc2ccccc2)cc1Cl)c1c[nH]c2ncnc(N[C@@H]3CC[C@@H](CO)OC3)c12` [nemtabrutinib]: the “Percentage inhibition” value on BRSK2 came out at 15.84%; at MARK3 it was 10.97%; on MST1, 96.55%; at QIK, 81.76%; at FLT3, 99.30%; at NuaK2, 24.70%.
Consider `COc1ccc(F)cc1C(=O)NCc1ccc(-c2nn([C@@H](C)C(F)(F)F)c(N)c2C(N)=O)cc1` [pirtobrutinib], for which the “Percentage inhibition” value on BRSK2 was 7.17%; on MARK3, 5.64%; at MST1, 10.97%; at QIK, 8.30%; on FLT3 it was -4.18%; at NuaK2, -0.23%.
In the case of `C=CC(=O)N1CCC([C@@H]2CCNc3c(C(N)=O)c(-c4ccc(Oc5ccccc5)cc4)nn32)CC1` [zanubrutinib], on FLT3, the “Percentage inhibition” value is 6.34%.
